What was measured:
[1] = test system: adolescents with Fontan physiology; experiment: FUEL Trial echocardiographic myocardial performance index (MPI), blood pool Doppler; format: in vivo, human
Source text: Generally speaking, MPI (also referred to as the Doppler-derived index or Tei Index) is a measure of ventricular systolic and diastolic function as determined by a focused echocardiogram. It combines systolic and diastolic time intervals to assess heart function. More specifically, MPI can be used to assess ventricular performance represented by a numeric value using cardiac time intervals. This numeric value equals the sum of isovolumetric contraction time (ICT) and isovolumetric relaxation time (IRT) divided by ejection time (ET) and can be determined for either the left or right ventricle. Pellett, A. A., et al.: The Tei Index: Methodology and Disease. State Values. Echocardiography: A Jrnl. of CV Ultrasound & Allied Tech. 21(7):669-672 (2004); and Ulugay, A., Tatli E.: Myocardial performance index. Anadolu Kardiyol Derg. 8(2):143-8 (April 2008), both of which are incorporated herein by reference in their entireties. In the FUEL Trial, the MPI measured the performance of the single functioning ventricle. Thus, the MPI results from the FUEL Trial were determined by velocities obtained from blood pool Doppler assessment of the inflow and outflow tract of the functioning single ventricle. In other words, the FUEL Trial MPI was determined by measuring the cardiac time intervals using pulsed-wave Doppler velocity spectra of the ventricular inflow and outflow of the single functioning ventricle.
Echocardiograms were performed by sonographers with specific training for this protocol. The primary outcome of interest was MPI using Doppler-based measures of inflow and outflow duration. The duration of inflow into the dominant ventricle and outflow across the dominant semilunar valve were measured and used to calculate MPI using the standard formula. Tei C, Ling L H, Hodge D O, et al.: New index of combined systolic and diastolic myocardial performance: a simple and reproducible measure of cardiac function-a study in normals and dilated cardiomyopathy. J Cardiol, 26(6):357-66 (1995); and Pellet A A et al.: The Tei Index: Methodology and Disease State Values. Echocardiography: A Jrnl Of CV Ultrasound & Allied Tech, 21(7):669-672 (2004). Additional tissue Doppler images were obtained and used to calculate the tissue Doppler based MPI as previously described. Harada K, Tamura M, Toyono M et al.: Comparison of the right ventricular Tei index by tissue Doppler imaging to that obtained by pulsed Doppler in children without heart disease. Am J Cardiol, 90(5):566-9 (2002).
Whenever possible, three measurements were made and the mean duration was used for the calculation.
Each subject underwent an echocardiogram at the start and finish of the 26 weeks. […] Table 3. […] The change in the MPI was determined by velocities obtained from blood pool Doppler assessment of the inflow and outflow tract of the single functioning dominant ventricle. All measurements were made by the echocardiography core lab at the Children's Hospital of Wisconsin.

[2] = test system: adolescents with Fontan physiology; experiment: FUEL Trial safety, adverse event reports; format: in vivo, human
Source text: The primary outcome was the change in oxygen consumption at peak exercise (max or peak VO2) from baseline to the 26-week visit. Secondary exercise outcomes included change in additional measures at maximal exertion, as well as change in measures of submaximal exercise at the ventilatory anaerobic threshold (VAT). The primary outcome for clinical secondary aims included change in myocardial performance index (MPI), an echocardiographically-derived measure of systolic and diastolic ventricular function, change in log-transformed reactive hyperemia index (InRHI), a PAT-derived measure of peripheral vascular function, and change in log-transformed serum BNP level. Safety was monitored through adverse event reports, which were collected according to a pre-specified protocol of study coordinator outreach, and through ad hoc patient and family communication with members of the study team at each site.
The primary outcome for clinical secondary aims included the between group differences in change in myocardial performance index (MPI), an echocardiographically-derived measure of systolic and diastolic ventricular function, change in log-transformed reactive hyperemia index (InRHI), a PAT-derived measure of peripheral vascular function, and change in log-transformed serum BNP level. Measurements for each of these secondary outcomes were performed at core labs. Safety was monitored through adverse event reports, which were collected according to a pre-specified protocol of study coordinator outreach, and through ad hoc patient and family communication with members of the study team at each site.
A sample size of 200 participants per arm was chosen to allow for 90% power to detect a mean treatment difference in change from baseline to 26-week testing in peak VO2 of 10% with a type 1 error of 0.05. We assumed a baseline standard deviation of 7.235 ml/kg/min, a correlation between peak VO2 measurements of 0.33, a drop-out and incomplete testing rate of 10%, and failure to reach maximal effort at the 26-week exercise testing in 15% of participants. These assumptions were based on historical data and reflect a conservative approach to assessing within-participant correlations and failure to reach maximal effort and the analysis was performed using a two-sample, independent means t-test. The primary analysis used the intention-to-treat population to evaluate the difference in the change in the primary outcome between treatment arms. This difference was assessed with an analysis of covariance (ANCOVA) with fixed factors for ventricular morphology (single left versus single right or mixed) and treatment group, with a continuous covariate of baseline peak VO2. For those without data at the 26-week visit, this value was imputed as equal to the baseline value (no change). The alpha level was set at 0.05 with two-sided testing. All statistical analyses were performed using SAS statistical software 9.4 (SAS Institute, Inc., Cary, North Carolina). Secondary analyses included participants who successfully completed the protocol with measurable values at each of the secondary endpoints. Secondary outcomes of continuous data points were analyzed in the manner described for the primary outcome. In order to assess the generalizability of findings at the ventilatory anaerobic threshold, demographic and clinical characteristics were compared between participants without paired VO2 at VAT data and those comprising the remainder of the cohort using the Student's t-test and Fisher's exact test. Fisher's exact test was used to compare adverse events between the udenafil and placebo cohorts.

`CCCOc1ccc(S(=O)(=O)NCCC2CCCN2C)cc1-c1nc2c(CCC)nn(C)c2c(=O)[nH]1` (stereo not drawn) [Udenafil, udenafil] was tested, and the “MPI, median of the difference Week 26 - baseline” value ([1]; ITT population) was −0.01, the “MPI difference Week 26 - baseline, LS Mean Dif A − B (SE), udenafil minus placebo” value ([1]; ITT population, ANCOVA) was −0.03 (0.014) and the “MPI at Week 26, LS Mean Dif A − B (SE), udenafil minus placebo” value ([1]; ITT population, ANOVA) was −0.04 (0.018). The “MPI at Week 26, mean” value ([1]; ITT population, N=146) was 146: 0.42, the “MPI, difference Week 26 - baseline, mean” value ([1]; all participants with paired data n=122, decrease shows improvement, p=0.028 vs placebo) was −0.02 and the “MPI, difference in change (treatment - placebo)” value ([1]; baseline peak VO2 <80% predicted, N=189) was −0.04. For the same compound, the “MPI, difference in change (treatment - placebo)” value ([1]; baseline peak VO2 ≥80% predicted, N=60) was 0.01, the “MPI, 26 week - baseline” value ([1]; excluding those with baseline peak VO2 ≥80% predicted, n=94) was −0.03 and the “Dizziness, % of participants” value ([2]; human, in vivo, 26 weeks) was “(8.0) %”. For the same compound, the “Dizziness, number of participants” value ([2]; human, in vivo, 26 weeks) was 16, the “Epistaxis, % of participants” value ([2]; human, in vivo, 26 weeks) was “(10.5) %” and the “Epistaxis, number of participants” value ([2]; human, in vivo, 26 weeks) was 21. For the same compound, the “Flushing, % of participants” value ([2]; human, in vivo, 26 weeks) was “(16.0) %”, the “Flushing, number of participants” value ([2]; human, in vivo, 26 weeks) was 32 and the “Headache, % of participants” value ([2]; human, in vivo, 26 weeks) was “(39.5) %”. The “Headache, number of participants” value ([2]; human, in vivo, 26 weeks) was 79, the “Nausea/vomiting, % of participants” value ([2]; human, in vivo, 26 weeks) was “(15.5) %” and the “Nausea/vomiting, number of participants” value ([2]; human, in vivo, 26 weeks) was 31. For the same compound, the “Participants who experienced a serious adverse event” value ([2]; human, in vivo, 26 weeks) was 14, the “Serious adverse events with possible, probable, or definite relationship to study drug” value ([2]; human, in vivo, 26 weeks) was 3 and the Priapism ([2]; in vivo) was “no reported episodes of priapism”. For the same compound, the “Increased erection, % of male participants” value ([2]; male, human, in vivo, 26 weeks) was “(11.7) %”, the “Increased erection, number of participants” value ([2]; male, human, in vivo, 26 weeks) was 13 and the Deaths ([2]; study cohort) was “no deaths”.
